Measurements reported in PubChem BioAssay (NCI).
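Protocol summary: plate cells (96-well), add compound at 5 concentrations, incubate 48 h, interpolate endpoints linearly. The concentration for full growth arrest is given as TGI.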

What was measured:
Assay in all cases: NCI anticancer screen, dose series, 48 h
DU-145 prostate = test system: DU-145 prostate
HCC-2998 colon = test system: HCC-2998 colon
HT29 colon = test system: HT29 colon
KM12 colon = test system: KM12 colon
NCI-H460 lung = test system: NCI-H460 lung
NCI/ADR-RES ovarian = test system: NCI/ADR-RES ovarian
OVCAR-4 ovarian = test system: OVCAR-4 ovarian
PC-3 prostate = test system: PC-3 prostate
SF-539 CNS = test system: SF-539 CNS
SK-MEL-2 melanoma = test system: SK-MEL-2 melanoma
T-47D breast = test system: T-47D breast
SF-268 CNS = test system: SF-268 CNS
SNB-75 CNS = test system: SNB-75 CNS

Compound | TGI (DU-145 prostate) | TGI (HCC-2998 colon) | TGI (HT29 colon) | TGI (KM12 colon) | TGI (NCI-H460 lung) | TGI (NCI/ADR-RES ovarian) | TGI (OVCAR-4 ovarian) | TGI (PC-3 prostate) | TGI (SF-539 CNS) | TGI (SK-MEL-2 melanoma) | TGI (T-47D breast) | TGI (SF-268 CNS) | TGI (SNB-75 CNS)
O=c1oc2cc(O)ccc2cc1-c1nc2ccccc2s1 | > 100 µM | 66.1 µM | 85.6 µM | > 100 µM | 62.2 µM | 44.7 µM | > 100 µM | 52.5 µM | 46.6 µM | 50.6 µM | 95.7 µM | – | –
CC(=O)O[C@H]1CC[C@H]2[C@@H]3CCC4=C(C(=O)C=CC4(C)OC(C)=O)[C@H]3CC[C@]12C (some centres undefined) | > 100 µM | > 100 µM | > 100 µM | > 100 µM | > 100 µM | > 100 µM | > 100 µM | > 100 µM | > 100 µM | – | > 100 µM | > 100 µM | > 100 µM
COc1ccccc1-c1nc2ccccc2c(=O)[nH]1 | > 100 µM | > 100 µM | – | > 100 µM | > 100 µM | > 100 µM | > 100 µM | > 100 µM | – | > 100 µM | > 100 µM | > 100 µM | > 100 µM
NC(N)=NS(=O)(=O)c1ccc(Nc2c3ccccc3nc3c(C(=O)NC(CO)(CO)CO)cccc23)cc1 | > 100 µM | > 100 µM | 61.1 µM | 38.5 µM | 16.6 µM | > 100 µM | – | > 100 µM | – | 50.8 µM | > 100 µM | > 100 µM | 18.7 µM
CC1(C)O[C@H]2[C@@H]3N=C(c4ccccc4)O[C@@H]3C=C[C@H]2O1 | > 100 µM | > 100 µM | > 100 µM | > 100 µM | – | > 100 µM | > 100 µM | > 100 µM | > 100 µM | > 100 µM | > 100 µM | 33.4 µM | –
Cc1ccc(S(=O)C[C@@]2(C(F)F)NC(=O)NC2=O)cc1 (some centres undefined) | > 100 µM | > 100 µM | > 100 µM | > 100 µM | > 100 µM | > 100 µM | > 100 µM | > 100 µM | – | > 100 µM | > 100 µM | > 100 µM | > 100 µM
COc1ccc(/C=C(\C(=O)OCC(C)C)c2ccc(OC)c(OC)c2)cc1OC | > 100 µM | > 100 µM | > 100 µM | – | > 100 µM | > 100 µM | > 100 µM | > 100 µM | > 100 µM | > 100 µM | > 100 µM | > 100 µM | > 100 µM
O=C1/C(=C/c2ccc(Cl)cc2)N=C(c2ccccc2)N1C1Nc2cc3c(cc2S1)NC(N1C(=O)/C(=C/c2ccc(Cl)cc2)N=C1c1ccccc1)S3 (centres undefined) | > 100 µM | > 100 µM | > 100 µM | > 100 µM | > 100 µM | > 100 µM | > 100 µM | > 100 µM | > 100 µM | > 100 µM | > 100 µM | > 100 µM | –
O=c1[nH]c(=O)n(C2OC(CO)C(O)C2O)cc1OCCc1ccccc1 (centres undefined) | > 100 µM | > 100 µM | > 100 µM | > 100 µM | > 100 µM | > 100 µM | > 100 µM | > 100 µM | > 100 µM | > 100 µM | > 100 µM | > 100 µM | –
c1nc(SSc2ncnc3nc[nH]c23)c2[nH]cnc2n1 | > 100 µM | – | > 100 µM | > 44.1 µM | > 100 µM | > 30.5 µM | > 100 µM | > 100 µM | > 100 µM | > 100 µM | > 100 µM | > 29.2 µM | > 100 µM
O=C1NC(N/N=C/c2ccccc2)=N/C1=C\c1cccs1 | 56.5 µM | – | > 55.3 µM | > 70.9 µM | > 100 µM | 37.6 µM | > 68.9 µM | 26.7 µM | 26.6 µM | 20.6 µM | > 100 µM | 30.3 µM | 51.8 µM
Clc1ccc2c(c1)CC1C[N+]3=C(CCCC3)C1=C2 (centres undefined) | > 100 µM | – | > 100 µM | > 100 µM | > 100 µM | > 100 µM | > 100 µM | > 100 µM | – | > 100 µM | > 100 µM | > 100 µM | > 100 µM
Cn1c(=O)c2c(ncn2CCSS(=O)(=O)O)n(C)c1=O | > 100 µM | – | > 100 µM | > 100 µM | > 100 µM | > 100 µM | > 100 µM | > 100 µM | > 100 µM | > 100 µM | > 100 µM | > 100 µM | > 100 µM
CCOC(=O)NC(NNc1ccc([N+](=O)[O-])cc1[N+](=O)[O-])(C(F)(F)F)C(F)(F)F | > 100 µM | > 100 µM | > 100 µM | > 100 µM | > 100 µM | > 100 µM | – | > 100 µM | 74.3 µM | > 100 µM | > 100 µM | > 100 µM | > 100 µM
CC(C)c1ccc2c(c1)C=C1OC(=O)[C@]3(C)CCC[C@@]2(C)C13 (some centres undefined) | > 100 µM | > 100 µM | > 100 µM | > 100 µM | > 100 µM | > 100 µM | > 100 µM | > 100 µM | > 100 µM | – | > 100 µM | > 100 µM | > 100 µM
COP(=O)(OC)C(O)/C=C(\Cl)c1ccc(Cl)cc1 (centres undefined) | > 100 µM | – | > 100 µM | > 100 µM | > 100 µM | 55.7 µM | > 100 µM | > 100 µM | > 100 µM | > 100 µM | > 100 µM | > 100 µM | > 100 µM
Cc1nc(N)c(N2CCN(Cc3ccccc3)CC2)c(=O)[nH]1 | > 100 µM | > 100 µM | > 100 µM | > 100 µM | > 100 µM | > 100 µM | – | > 100 µM | > 100 µM | > 100 µM | > 100 µM | > 100 µM | –
c1ccc(SC(Sc2ccccc2)c2ccc3c(c2)OCO3)cc1 | > 100 µM | – | > 100 µM | > 100 µM | > 100 µM | > 100 µM | > 100 µM | > 100 µM | – | > 100 µM | > 100 µM | > 100 µM | –
CNC(=O)c1n[nH]n(Cc2ccccc2)c1=S | > 100 µM | > 100 µM | > 100 µM | > 100 µM | > 100 µM | > 100 µM | > 100 µM | > 100 µM | – | > 100 µM | > 100 µM | – | > 100 µM
